Test system: 958767-090-R-J1-PDC spheroid growth
Test: Anticancer human tumor 958767-090-R-J1-PDC patient-derived head and neck squamous carcinoma cell line growth inhibition [IpAb]
Details: spheroids with HUVEC and MSC; for IC50: curve of first compound; for viability, T/C: stronger effect = lower value
Method in brief: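 Multi-cell spheroids of 60% tumour cells, 25% HUVEC and 15% MSC in ultra-low-attachment U-bottom wells, treated with agents combined with ipatasertib or abemaciclib. Half-log ranges top out near clinical Cmax, or 10 microM when Cmax is unknown.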

[1] = second compound 0.1 µM, first compound 0.0316 µM
[2] = second compound 0.1 µM, first compound 0.1 µM
[3] = second compound 0.1 µM, first compound 0.316 µM
[4] = second compound 0.1 µM, first compound 1 µM
[5] = second compound 0.1 µM, first compound 3.16 µM
[6] = second compound 0.1 µM, first compound 10 µM
[7] = second compound 0.316 µM, first compound 0.0316 µM
[8] = second compound 0.316 µM, first compound 0.1 µM
[9] = second compound 0.316 µM, first compound 0.316 µM
[10] = second compound 0.316 µM, first compound 1 µM
[11] = second compound 0.316 µM, first compound 3.16 µM
[12] = second compound 0.316 µM, first compound 10 µM
[13] = second compound 1 µM, first compound 0.0316 µM
[14] = second compound 1 µM, first compound 0.1 µM
[15] = second compound 1 µM, first compound 0.316 µM
[16] = second compound 1 µM, first compound 1 µM
[17] = second compound 1 µM, first compound 3.16 µM
[18] = second compound 1 µM, first compound 10 µM
[19] = second compound 3.16 µM, first compound 0.0316 µM
[20] = second compound 3.16 µM, first compound 0.1 µM
[21] = second compound 3.16 µM, first compound 0.316 µM
[22] = second compound 3.16 µM, first compound 1 µM
[23] = second compound 3.16 µM, first compound 3.16 µM
[24] = second compound 3.16 µM, first compound 10 µM
[25] = second compound 10 µM, first compound 0.0316 µM
[26] = second compound 10 µM, first compound 0.1 µM
[27] = second compound 10 µM, first compound 0.316 µM
[28] = second compound 10 µM, first compound 1 µM
[29] = second compound 10 µM, first compound 3.16 µM
[30] = second compound 10 µM, first compound 10 µM
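Further: spheroids exposed to agents for 7 days.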
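Wherever viability, T/C is given: 100% = DMSO vehicle control wells.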

| Compound | IC50 (second compound 0.1 µM) | IC50 (second compound 0.316 µM) | IC50 (second compound 1 µM) | IC50 (second compound 3.16 µM) | IC50 (second compound 10 µM) | viability, T/C [1] | viability, T/C [2] | viability, T/C [3] | viability, T/C [4] | viability, T/C [5] | viability, T/C [6] | viability, T/C [7] | viability, T/C [8] | viability, T/C [9] | viability, T/C [13] | viability, T/C [14] | viability, T/C [19] | viability, T/C [20] | viability, T/C [25] | viability, T/C [26] | other results |
| --- | --- | --- | --- | --- | --- | --- | --- | --- | --- | --- | --- | --- | --- | --- | --- | --- | --- | --- | --- | --- | --- |
| C=CC(=O)N1CCN(c2nc(=O)n(-c3c(C)ccnc3C(C)C)c3nc(-c4c(O)cccc4F)c(F)cc23)C(C)C1 (stereo not given) + CC(C)NCC(C(=O)N1CCN(c2ncnc3c2C(C)CC3O)CC1)c1ccc(Cl)cc1 | 5020 nM | 1870 nM | 835 nM | 1580 nM | 1050 nM | 82% | 86.5% | 84.4% | 86.4% | 59.9% | 35.2% | 78.5% | 71.1% | 72.3% | 72.8% | 57.4% | 63.9% | 66.9% | 56.2% | 54.6% | viability, T/C [10]: 54.7%; viability, T/C [11]: 44.8%; viability, T/C [12]: 28.7%; viability, T/C [15]: 63.3%; viability, T/C [16]: 48.4%; viability, T/C [17]: 34%; viability, T/C [18]: 19.2%; viability, T/C [21]: 53.8%; viability, T/C [22]: 54.5%; viability, T/C [23]: 44.9%; viability, T/C [24]: 16%; viability, T/C [27]: 64.9%; viability, T/C [28]: 48.1%; viability, T/C [29]: 29.6%; viability, T/C [30]: 5.8% |
| Cn1ncc(Cl)c1-c1cc(C(=O)NC(CN)Cc2cccc(F)c2)sc1Cl (stereo not given) + CC(C)NCC(C(=O)N1CCN(c2ncnc3c2C(C)CC3O)CC1)c1ccc(Cl)cc1 | 1210 nM | 952 nM | 1020 nM | 113 nM | < 31.6 nM | 70.3% | 70.3% | 54.5% | 59.3% | 32.8% | 0.14% | 57.5% | 62.6% | 52.2% | 54.6% | 50.8% | 53.1% | 47.6% | 42.5% | 36.3% | viability, T/C [10]: 47.5%; viability, T/C [11]: 37.9%; viability, T/C [12]: 0.46%; viability, T/C [15]: 55.4%; viability, T/C [16]: 50%; viability, T/C [17]: 31.6%; viability, T/C [18]: 0.13%; viability, T/C [21]: 48.4%; viability, T/C [22]: 45.7%; viability, T/C [23]: 32.3%; viability, T/C [24]: 0.64%; viability, T/C [27]: 39.8%; viability, T/C [28]: 42.5%; viability, T/C [29]: 22.2%; viability, T/C [30]: 0.81% |
| Cn1ncnc1[C@H]1c2n[nH]c(=O)c3cc(F)cc(c23)N[C@@H]1c1ccc(F)cc1 + CC(C)NCC(C(=O)N1CCN(c2ncnc3c2C(C)CC3O)CC1)c1ccc(Cl)cc1 | > 100 nM | > 100 nM | > 100 nM | > 100 nM | 51.3 nM | 87.4% | 73% | – | – | – | – | 77.6% | 65.8% | – | 62.4% | 56.4% | 62.4% | 59.3% | 56% | 42% | viability, T/C (second compound 0.1 µM, first compound 0.000316 µM): 91.5%; viability, T/C (second compound 0.1 µM, first compound 0.001 µM): 87.8%; viability, T/C (second compound 0.1 µM, first compound 0.00316 µM): 91.2%; viability, T/C (second compound 0.1 µM, first compound 0.01 µM): 83.7%; viability, T/C (second compound 0.316 µM, first compound 0.000316 µM): 70%; viability, T/C (second compound 0.316 µM, first compound 0.001 µM): 77.4%; viability, T/C (second compound 0.316 µM, first compound 0.00316 µM): 74.7%; viability, T/C (second compound 0.316 µM, first compound 0.01 µM): 86.8%; viability, T/C (second compound 1 µM, first compound 0.000316 µM): 69.5%; viability, T/C (second compound 1 µM, first compound 0.001 µM): 63.9%; viability, T/C (second compound 1 µM, first compound 0.00316 µM): 72.2%; viability, T/C (second compound 1 µM, first compound 0.01 µM): 74.2%; viability, T/C (second compound 3.16 µM, first compound 0.000316 µM): 65%; viability, T/C (second compound 3.16 µM, first compound 0.001 µM): 52.6%; viability, T/C (second compound 3.16 µM, first compound 0.00316 µM): 58.8%; viability, T/C (second compound 3.16 µM, first compound 0.01 µM): 70.2%; viability, T/C (second compound 10 µM, first compound 0.000316 µM): 63.3%; viability, T/C (second compound 10 µM, first compound 0.001 µM): 55.3%; viability, T/C (second compound 10 µM, first compound 0.00316 µM): 58.1%; viability, T/C (second compound 10 µM, first compound 0.01 µM): 58.4% |
